Measured values from patent publication US20190328658A1, “ESTROGEN PRODRUGS AND METHODS OF ADMINISTERING ESTROGEN PRODRUGS” (Evestra, Inc., priority 2018, published 2019).
≈ marks a conversion by molar mass, not a printed value.

Key:
Log P = assay type: physicochemical; conditions: Table 2
Text: Example 10: Determination of Log p and Permeability Values of Estriol Prodrugs

[1] = Caco-2 permeability (A-to-B); assay type: in vitro ADME; conditions: human; Caco-2, A-to-B, 120 minutes, dosing 5myM
Method: (§1) Caco-2 cells (clone C2BBel) were obtained from American Culture Collection. Cell monolayers were grown to confluence on collagen-coated, microporous membranes in 12-well assay plates. The permeability assay buffer was Hank's balanced salt solution. The buffer in the receiving chamber also contained 1% bovine serum albumin. The dosing solution concentration was 5myMof test article in the assay buffer. Cell monolayers were dosed on the apical side (A-to-B) and incubated at 37° C. with 5% CO2 in a humidified incubator. Samples were taken from the donor and receiver chamber at 120 minutes. All samples were assayed by LC-MS/MS using electrospray ionization. The apparent permeability (Papp) were calculated as follows: […]
(§2) With dCr/dt being the slope of the cumulative concentration in the recover compartment versus time in ny Ms^−1;
(§3) Vr is the volume of the receiver compartment in cm^3
(§4) A is the area of the insert (1.13 cm^2 for 12-well)

[2] = EP '025; cited from earlier work
[3] = stated in discussion; cited from earlier work
[4] = Solubility in EVA by hot stage microscopy; assay type: physicochemical; conditions: for Solubility in EVA28/2.5 at 37° C. (via HSM): EVA28/2.5, hot stage microscopy
Text: Solubilities in EVA were estimated by hot stage microscopy.

[5] = vaginal or oral application; cited from earlier work
[6] = depending on the model applied; cited from earlier work
[7] = in vitro release rates of estriol prodrugs from intravaginal rings; assay type: physicochemical; conditions: for Burst Release d1 / Burst Release d2 / Average API release d3-d21: ring, API loading 5.0 %, core polymer EVA28/2.5 (E3: EVA26/4.0), 37°C; for Burst Release d1: day 1; for Burst Release d2: day 2; for Average API release d3-d21: days 3-21
Method: The estriol prodrugs were processed via hot-melt extrusion and subsequent ring closure to intravaginal rings: […] The hot melt extrusion line for processing the estriol containing EVA28 powder consisted of an 18 mm twin screw extruder, equipped with a loss in weight feeder for dosing the drug containing premix into the extruder. Extrusion was performed at low throughputs of approx. 2 kg/h, the temperature profile of the extruder barrels was adjusted to yield a melt temperature of approx. 125° C. After leaving the die, the strands were directly conveyed through a water bath to obtain a fast cooling process and minimize potential strand deformation. As haul-off unit, a strand pelletizer without knives was used to pull and convey the strand accurately through all downstream sections, ensuring homogeneous strand diameters and a […] shape. […] The cross-sectional diameter of the co-extrudate was measured in-line with a laser system (3 laser heads). […] Alternatively, the ring closure was accomplished via an injection molding process equipment, equipped with a 4.0 mm mold (one or multiple cavities), using EVA28 placebo material as injection material. To determine the in vitro release rates, a rotational incubator, operated at 37±0.5° C., is used. The dissolution medium type, the dissolution medium volume and the rotational speed of the used incubator are selected to provide sink conditions.

[8] = Solubility in water/medium (shaking 24 hours, HPLC); conditions: 37 °C, thermodynamic from solid
Method: (§5) Solubilities were determined by shaking (24 hours) an excess of steroid in 20 ml of water/medium at 37° C. Following equilibrium, a portion was passed through a 0,22m-my filter and the steroid concentration in the filtrate was determined by high-performance liquid chromatography.

[9] = cited from earlier work
physchem = conditions: 37 °C, water, thermodynamic from solid
Method: as §5

[10] = test system: Caco-2 cells (clone C2BBel); assay: Caco-2 permeability (A-to-B); assay type: in vitro ADME; conditions: Caco-2
Method: as §1, §2, §3, §4

Row | SMILES | logP (Log P) | Papp A→B at 120 min, 5 µM [1] [×10⁻⁶ cm/s] | recovery at 120 min, 5 µM [1] [%] | Solubility in EVA28/2.5 at 37° C. (via HSM) [4] | Burst Release d1 [7] [µg] | Burst Release d2 [7] [µg] | Average API release d3-d21 [7] [µg/day] | solubility at 24 h (physchem) [µg/mL] | other results
1 | C#C[C@]1(O)CC[C@H]2[C@@H]3CCc4cc(O)ccc4[C@H]3CC[C@@]21C [EE, ethinyl estradiol, reference compound] | 4.52 | 42.5 | 59 |  |  |  |  |  | 
2 | CC(=O)O[C@H]1CC[C@H]2[C@@H]3CCc4cc(O)ccc4[C@H]3CC[C@]12C [17-acetate derivative of estradiol] |  |  |  |  |  |  |  |  | daily release rate compared to estradiol [2]: around 3 fold
3 | C[C@]12CC[C@@H]3c4ccc(O)cc4CC[C@H]3[C@@H]1CC[C@@H]2O [Example E2, estradiol, reference compound] | 4.13 |  | 15 |  |  |  |  |  | log P [3]: 3.94
4 | C[C@]12CC[C@@H]3c4ccc(O)cc4CC[C@H]3[C@@H]1C[C@@H](O)[C@@H]2O [Example E3, Estriol] |  |  |  | 0.5-1% | 665.1 | 294.5 | 119.4 |  | time after application after which no estriol plasma level above the limit could be determined [5]: 4 to 6 h; reduction in activity compared to estradiol [6]: 10 to 30%; log P [3]: 2.81; solubility at 24 h ([8]; water + 2% SLS, aqueous with cosolvent or surfactant or cyclodextrin): 465 µg/mL; solubility at 24 h ([8]; water): 58.4 µg/mL (≈ 203 µM)
5 | CC(=O)Oc1ccc2c(c1)CC[C@@H]1[C@@H]2CC[C@]2(C)[C@@H](O)CC[C@@H]12 [estradiol-3-acetate, estradiol 3-acetate] |  |  |  |  |  |  |  |  | daily release rate compared to estradiol [2]: above 45 fold; solubility in silicone compared to estradiol ([9]; silicone): around 10 fold; solubility in water compared to estradiol ([9]; water): twofold higher
6 | CC(=O)Oc1ccc2c(c1)CCC1C2CC[C@@]2(C)C1C[C@@H](O)[C@@H]2O (stereo partly drawn) [EC5104, (8xi,9xi,14xi,16α,17β)-16,17-dihydroxyestra-1(10),2,4-trien-3-yl acetate] | 3.02 | 23.7 | 64 | 0.5 wt % | 2891.6 | 1322.0 | 548.1 | 57.8 | solubility in EVA compared to estriol [4]: comparable to the estriol solubility in EVA
7 | C[C@]12CCC3c4ccc(OC(=O)C5CC5)cc4CCC3C1C[C@@H](O)[C@@H]2OC(=O)C1CC1 (stereo partly drawn) [EC5106, 3,16α,17β-Trihydroxyestra-1,3,5(10)-triene 3,17-biscyclopropane carboxylate] | 3.99 | 11.4 | 25 |  |  |  |  |  | 
8 | C[C@]12CCC3c4ccc(OC(=O)C5CC5)cc4CCC3C1C[C@@H](O)[C@@H]2O (stereo partly drawn) [EC5105, (8xi,9xi,14xi,16α,17β)-16,17-dihydroxyestra-1(10),2,4-trien-3-yl cyclopropanecarboxylate] | 3.38 | 1.76 | 3 | 0.5-2 wt % | 4301.1 | 1369.8 | 567.3 | 4.9 (≈ 13.7 µM) | Caco-2 permeability, comparison in words [10]: very low permeability compared to the 17 analog
9 | C[C@]12CCC3c4ccc(O)cc4CCC3C1C[C@@H](O)[C@@H]2OC(=O)C1CC1 (stereo partly drawn) [EC537, (16R,17R)-3,16-dihydroxy-7,8,9,11,12,13,14,15,16,17-decahydro-6H-cyclopenta α phenanthren-17-yl cyclopropanecarboxylate] | 3.55 | 24 | 26 | 4-5 wt % | 15521.1 | 6229.4 | 1785.5 | 4.2 (≈ 11.8 µM) | daily release rate compared to estriol-3-acetate [7]: around 10 fold
